# Reference: ChEMBL document CHEMBL2150876, “Cosmomycin C inhibits signal transducer and activator of transcription 3 (STAT3) pathways in MDA-MB-468 breast cancer cell” (Bioorg Med Chem, 2011)
# Activity calls are given as the source filed them. No cut-off for these calls is given here.
# What was measured:
# DU-145 = test: Cytotoxicity against human DU145 cells assessed as cell viability after 24 hrs by WST1 assay; format: functional, cell-based
# MDA-MB-468 [1] = test: Effect on STAT3 protein level in human MDA-MB-468 cells after 24 hrs by Western blot analysis; format: functional, cell-based
# MDA-MB-468 [2] = test: Cytotoxicity against human MDA-MB-468 cells assessed as cell viability after 24 hrs by WST1 assay; format: functional, cell-based
# [3] = target: Signal transducer and activator of transcription 3 (Homo sapiens) (UniProt P40763); test: Inhibition of STAT3 phosphorylation at Tyr705 in human MDA-MB-468 cells after 24 hrs by Western blot analysis; format: cell-based
# [4] = target: Signal transducer and activator of transcription 3 (Homo sapiens) (UniProt P40763); test: Inhibition of STAT3 expressed in human HeLa cells after 24 hrs by renilla dual-luciferase reporter gene assay; format: cell-based
# MCF7 = test: Cytotoxicity against human MCF7 cells assessed as cell viability at 10 to 500 nM after 24 hrs by WST1 assay; format: functional, cell-based
# HCT-116 = test: Cytotoxicity against human HCT116 cells assessed as cell viability at 10 to 500 nM after 24 hrs by WST1 assay; format: functional, cell-based
# [5] = target: Signal transducer and activator of transcription 3 (Homo sapiens) (UniProt P40763); test: Suppression of STAT3 mediated cyclinD1 expression in human MDA-MB-468 cells by immunoblotting assay; format: cell-based
# MDA-MB-468 [6] = test: Cell cycle arrest in human MDA-MB-468 cells assessed as accumulation at S phase at 500 nM after 24 hrs using propidium iodide staining by FACS flow cytometry (reference value: 12.46%); format: functional
# MDA-MB-468 [7] = test: Cell cycle arrest in human MDA-MB-468 cells assessed as accumulation at G0/G1 phase at 200 nM after 24 hrs using propidium iodide staining by FACS flow cytometry (reference value: 49.13%); format: functional
# MDA-MB-468 [8] = test: Cell cycle arrest in human MDA-MB-468 cells assessed as accumulation at G2/M phase at 50 nM after 24 hrs using propidium iodide staining by FACS flow cytometry (reference value: 31.39%); format: functional
# MDA-MB-468 [9] = test: Cell cycle arrest in human MDA-MB-468 cells assessed as accumulation at G0/G1 phase at 500 nM after 24 hrs using propidium iodide staining by FACS flow cytometry (reference value: 49.13%); format: functional
# MDA-MB-468 [10] = test: Cell cycle arrest in human MDA-MB-468 cells assessed as accumulation at subG1 phase at 200 nM after 24 hrs using propidium iodide staining by FACS flow cytometry (reference value: 7.01%); format: functional
# [11] = target: Signal transducer and activator of transcription 3 (Homo sapiens) (UniProt P40763); test: Suppression of STAT3 mediated VEGF expression in human MDA-MB-468 cells by immunoblotting assay; format: cell-based
# [12] = target: Signal transducer and activator of transcription 3 (Homo sapiens) (UniProt P40763); test: Suppression of STAT3 mediated Mcl-1 expression in human MDA-MB-468 cells assessed as complete inhibition at 200 nM by immunoblotting assay; format: cell-based
# [13] = target: Signal transducer and activator of transcription 3 (Homo sapiens) (UniProt P40763); test: Suppression of STAT3 mediated cyclinD1 expression in human MDA-MB-468 cells at G0/G1 phase by immunoblotting assay; format: cell-based
# [14] = target: Signal transducer and activator of transcription 3 (Homo sapiens) (UniProt P40763); test: Inhibition of STAT3 phosphorylation at Tyr705 in human MDA-MB-468 cells at 500 nM after 24 hrs by Western blot analysis; format: cell-based
# MDA-MB-468 [15] = test: Induction apoptosis in human MDA-MB-468 cells assessed as procaspase-3-mediated PARP cleavage after 24 hrs by Western blotting method; format: functional, cell-based
# MDA-MB-468 [16] = test: Cell cycle arrest in human MDA-MB-468 cells assessed as accumulation at G2/M phase at 500 nM after 24 hrs using propidium iodide staining by FACS flow cytometry (reference value: 31.39%); format: functional
# MDA-MB-468 [17] = test: Cell cycle arrest in human MDA-MB-468 cells assessed as accumulation at S phase at 200 nM after 24 hrs using propidium iodide staining by FACS flow cytometry (reference value: 12.46%); format: functional
# [18] = target: Signal transducer and activator of transcription 3 (Homo sapiens) (UniProt P40763); test: Inhibition of translocation of STAT3 into nucleus in human MDA-MB-468 cells assessed as localization in cytoplasm at 200 nM after 24 hrs […] by Western blotting method; format: cell-based
# [19] = target: Signal transducer and activator of transcription 3 (Homo sapiens) (UniProt P40763); test: Inhibition of STAT3 phosphorylation at Ser727 in human MDA-MB-468 cells after 24 hrs by Western blot analysis; format: cell-based
# [20] = target: Signal transducer and activator of transcription 3 (Homo sapiens) (UniProt P40763); test: Inhibition of translocation of STAT3 into nucleus in human MDA-MB-468 cells at 200 nM after 24 hrs […] by immunoblotting method; format: cell-based
# [21] = target: Signal transducer and activator of transcription 3 (Homo sapiens) (UniProt P40763); test: Suppression of STAT3 mediated Bcl-XL expression in human MDA-MB-468 cells assessed as complete inhibition at 200 nM by immunoblotting assay; format: cell-based
# MDA-MB-468 [22] = test: Cell cycle arrest in human MDA-MB-468 cells assessed as accumulation at G0/G1 phase at 50 nM after 24 hrs using propidium iodide staining by FACS flow cytometry (reference value: 49.13%); format: functional
# [23] = target: Signal transducer and activator of transcription 3 (Homo sapiens) (UniProt P40763); test: Suppression of STAT3 mediated Mcl-1 expression in human MDA-MB-468 cells by immunoblotting assay; format: cell-based
# MDA-MB-468 [24] = test: Cell cycle arrest in human MDA-MB-468 cells assessed as accumulation at G2/M phase at 200 nM after 24 hrs using propidium iodide staining by FACS flow cytometry (reference value: 31.39%); format: functional
# MDA-MB-468 [25] = test: Cell cycle arrest in human MDA-MB-468 cells assessed as accumulation at subG1 phase at 500 nM after 24 hrs using propidium iodide staining by FACS flow cytometry (reference value: 7.01%); format: functional
# MDA-MB-468 [26] = test: Cell cycle arrest in human MDA-MB-468 cells assessed as accumulation at S phase at 50 nM after 24 hrs using propidium iodide staining by FACS flow cytometry (reference value: 12.46%); format: functional
# [27] = target: Signal transducer and activator of transcription 3 (Homo sapiens) (UniProt P40763); test: Suppression of STAT3 mediated Bcl-XL expression in human MDA-MB-468 cells by immunoblotting assay; format: cell-based
# [28] = target: Signal transducer and activator of transcription 3 (Homo sapiens) (UniProt P40763); test: Suppression of STAT3 mediated survivin expression in human MDA-MB-468 cells by immunoblotting assay; format: cell-based
# MDA-MB-468 [29] = test: Cell cycle arrest in human MDA-MB-468 cells assessed as accumulation at subG1 phase at 50 nM after 24 hrs using propidium iodide staining by FACS flow cytometry (reference value: 7.01%); format: functional
# Sequence of Signal transducer and activator of transcription 3 (Homo sapiens) (P40763 whole entry): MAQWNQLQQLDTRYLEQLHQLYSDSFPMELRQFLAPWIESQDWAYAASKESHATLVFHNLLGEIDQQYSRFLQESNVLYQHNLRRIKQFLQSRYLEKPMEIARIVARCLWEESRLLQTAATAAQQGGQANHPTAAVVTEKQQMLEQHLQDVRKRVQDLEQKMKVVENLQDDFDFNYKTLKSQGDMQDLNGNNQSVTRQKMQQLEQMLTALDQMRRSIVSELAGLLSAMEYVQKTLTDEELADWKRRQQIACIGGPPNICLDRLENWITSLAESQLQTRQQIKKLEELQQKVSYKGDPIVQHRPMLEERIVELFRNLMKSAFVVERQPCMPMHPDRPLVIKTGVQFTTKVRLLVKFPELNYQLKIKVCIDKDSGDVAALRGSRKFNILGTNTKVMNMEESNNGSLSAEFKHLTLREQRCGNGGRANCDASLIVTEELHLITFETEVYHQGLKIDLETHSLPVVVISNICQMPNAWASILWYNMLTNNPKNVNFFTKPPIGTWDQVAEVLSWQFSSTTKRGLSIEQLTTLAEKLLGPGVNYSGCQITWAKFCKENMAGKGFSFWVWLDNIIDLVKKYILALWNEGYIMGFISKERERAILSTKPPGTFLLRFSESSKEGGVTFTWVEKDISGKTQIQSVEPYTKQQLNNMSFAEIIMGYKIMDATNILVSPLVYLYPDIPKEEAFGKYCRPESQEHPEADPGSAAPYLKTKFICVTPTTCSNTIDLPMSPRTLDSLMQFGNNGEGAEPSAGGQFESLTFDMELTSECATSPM
compound,measurement,setting,value
CC[C@@]1(O)CCc2c(O)c3c(c(O)c2[C@H]1O[C@H]1C[C@H](N(C)C)[C@@H](O[C@H]2C[C@H](O)[C@@H](O[C@H]4CC[C@H](O)[C@H](C)O4)[C@H](C)O2)[C@H](C)O1)C(=O)c1cccc(O)c1C3=O,Activity,DU-145,inactive
same,Activity,MDA-MB-468 [1],inactive
same,Activity,MDA-MB-468 [2],inactive
same,inhibition,[3],inactive
same,inhibition,[4],inactive
same,Activity,MCF7,inactive
same,Activity,HCT-116,inactive
CO[C@H](C(=O)[C@@H](O)[C@@H](C)O)[C@@H]1Cc2cc3cc(O[C@H]4C[C@@H](O[C@@H]5C[C@@H](O)[C@H](O)[C@@H](C)O5)[C@H](O)[C@@H](C)O4)c(C)c(O)c3c(O)c2C(=O)[C@H]1O[C@H]1C[C@@H](O[C@@H]2C[C@@H](O)[C@@H](O[C@@H]3C[C@](C)(O)[C@H](O)[C@@H](C)O3)[C@@H](C)O2)[C@H](O)[C@@H](C)O1,inhibition,[4],inactive
CC[C@@]1(O)C[C@H](O[C@H]2C[C@H](N(C)C)[C@@H](O[C@H]3C[C@H](O)[C@@H](O[C@H]4CC[C@H](O)[C@H](C)O4)[C@H](C)O3)[C@H](C)O2)c2c(O)c3c(c(O)c2[C@H]1O[C@H]1C[C@H](N(C)C)[C@@H](O[C@H]2CC[C@H](O[C@H]4CC[C@H](O)[C@H](C)O4)[C@H](C)O2)[C@H](C)O1)C(=O)c1cccc(O)c1C3=O [COSMOMYCIN C],Activity,[5],Dose-dependent effect
same,Activity,MDA-MB-468 [6],8.78%
same,Activity,DU-145,Dose-dependent effect
same,Activity,MDA-MB-468 [1],inactive
same,Activity,MDA-MB-468 [7],59.53%
same,Activity,MDA-MB-468 [8],26.91%
same,Activity,MDA-MB-468 [2],Dose-dependent effect
same,IC50,"MDA-MB-468 [2]; MDA-MB-468, 24 h",0.21 µM
same,Activity,MDA-MB-468 [9],49.9%
same,inhibition,[3],Dose-dependent effect
same,inhibition,[4],Dose-dependent effect
same,Activity,MDA-MB-468 [10],9.47%
same,Activity,[11],Dose-dependent effect
same,Activity,[12],Active
same,Activity,[13],Active
same,inhibition,[14],Active
same,Activity,MDA-MB-468 [15],Active
same,Activity,MDA-MB-468 [16],15.81%
same,Activity,MDA-MB-468 [17],8.82%
same,inhibition,[18],Active
same,inhibition,[19],inactive
same,Activity,[20],Active
same,Activity,[21],Active
same,Activity,MDA-MB-468 [22],54.64%
same,Activity,[23],Dose-dependent effect
same,Activity,MDA-MB-468 [24],22.18%
same,Activity,MDA-MB-468 [25],25.52%
same,Activity,MDA-MB-468 [26],10.52%
same,Activity,MCF7,inactive
same,Activity,[27],Dose-dependent effect
same,Activity,[28],Dose-dependent effect
same,Activity,MDA-MB-468 [29],7.93%
same,Activity,HCT-116,inactive
